The values that follow come from patent US20250262214A1, “INTERMITTENT DOSING REGIMEN FOR AZENOSERTIB IN TREATING CANCER” (Zeno Management, Inc., priority 2022, published 2025).

“Also recorded” adds a separate entry of the source.

Series [1] concerns human ovarian cancer SKOV3. The series can be described thus: Human ovarian cancer SKOV3 animal model, tumor volume. The format is in vivo. To be noted: 80 mg/kg 3 cycles 5 days on/2 days off vs continuous 60 mg/kg, 21 days. The protocol:
In an exemplary human ovarian cancer SKOV3 animal model, Azenosertib was administered at a continuous dose of 60 mg/kg or at an intermittent dosing of 80 mg/kg at 3 cycles of 5 days on/2 days off (5/2).

Series [2] relates to breast ductal carcinoma HCC1569. The series can be described thus: Breast ductal carcinoma HCC1569 model, tumor volume. It counts as in vivo, human. How it is done: In an exemplary breast ductal carcinoma HCC1569 model, Azenosertib was administered at a dose of about 100 mg/kg at intermittent dosing regimen of 3 cycles of 4 days on/3 days off (4/3) and 3 days on/4 days off (3/4) and compared with a lower continuous dose (e.g., 60 mg/kg). Tumor volume change was plotted in FIG. 1G and corresponding change in body weight in FIG. 1H until about 24 days post-initiation of treatment.

In series [3] the test system is human ovarian cancer OVCAR3. The series can be described thus: Human ovarian cancer OVCAR3 model, tumor volume. The format is in vivo. How it is done: In an exemplary human ovarian cancer OVCAR3 model, Azenosertib was administered at a dose of about 100 mg/kg at intermittent dosing regimen of 3 cycles of 7 days on/7 days off (7/7). Tumor volume change was plotted in FIG. 1I and corresponding change in body weight in FIG. 1J until about 32 days post-initiation of treatment.
In an exemplary human ovarian cancer OVCAR3 model, Azenosertib was administered based on an intermittent dosing regimen of 5 days on/2 days off (5/2) for a once daily dose (as compared to a twice daily dose (e.g., 80 mg/kg once daily vs. 40 mg/kg twice daily and 100 mg/kg once daily vs. 50 mg/kg twice daily).
Tumor volume was measured as shown in FIG. 2A and corresponding changes in body weight are shown in FIG. 2B until about 22 days post initiation of treatment.
In an exemplary human ovarian cancer OVCAR3 model, Azenosertib was administered at two different doses in each of two intermittent dosing regimen. Briefly, Azenosertib was administered 5 cycles of a 5 days on/2 days off (5/2) intermittent regimen at a dose of about 80 mg/kg (cumulative dose of 400 mg) and 90 mg/kg (cumulative dose of 450 mg) and also 4 cycles of a 4 days on/3 days off (4/3) intermittent regimen at 90 mg/kg (cumulative dose of 450 mg) and 100 mg/kg (cumulative dose of 500 mg). The results were compared with a continuous dose of 60 mg/kg for 22 days (cumulative dose of 300 mg).
Changes in tumor volume are shown in FIG. 2C and corresponding change in body weight in FIG. 2D until about 24 days post-initiation of treatment.
In an exemplary human ovarian cancer OVCAR3 model, Azenosertib was administered at 100 mg/kg in 3 cycles each of two intermittent dosing regimen, 4 days on/3 days off (4/3) or 3 days on/4 days off (3/4). Further, a continuous dosing of 60 mg/kg was administered for 24 days.
At a dose of 3 cycles of about 100 mg/kg for 4/3, the cumulative dose was 1200 mg, while at a dose of 3 cycles of about 100 mg/kg for 3/4, the cumulative dose was 900 mg.
Azenosertib and the PARPi, talazoparib, were evaluated using OVCAR-3 models on an intermittent dosing schedule. […] In addition, the alternating dosing schedule may potentially abrogate overlapping toxicity with WEE1 inhibitor and PARPi coadministration.
In an exemplary human ovarian cancer OVCAR3 animal model, Azenosertib was administered at an intermittent dosing of 60 mg/kg or 80 mg/kg at 3 cycles of 5 days on/2 days off, while Paclitaxel and Carboplatin were also each administered at respectively 20 mg/kg and 25 mg/kg, once a week, for 3 weeks In addition, the combinations of Azenosertib and Paclitaxel and of Azenosertib and Carboplatin were administered in accordance with the same dosing regimens and doses as their respective monotherapies.

Series [4] concerns the target T1, Wee1 (Homo sapiens, UniProt P30291).
T1 construct: from tissue; host or cells: skin biopsies of treated subjects
The experiment in a line: PK/PD correlation, Wee1 target engagement (p-CDK1 in skin biopsies). It counts as in vivo. The text has this:
CDK1 phosphorylation (pCDK-1) is mediated by Wee1. It is contemplated that Wee1 inhibition by Azenosertib results in pCDK1 inhibition.

Series [5] relates to ovarian cancer and uterine serous carcinoma (USC). The series can be described thus: Phase 1a/1b Azenosertib monotherapy study, tumor response (RECIST 1.1). The format is in vivo, human. The protocol: In this example, a Phase 1a dose escalation and Phase 1b dose expansion clinical study was carried out to evaluate the safety and pharmacokinetics (PK), i.e. steady state exposure (AUC0-24) and concentration maximum (Cmax) of Azenosertib monotherapy.
In some cohorts, a phase 1a dose escalation was carried out starting at doses below 200 mg, escalating to 200 mg, 300 mg, 350 mg, 400 mg, and 450 mg total daily dose in continuous dosing regimen. The dose used in Phase 1b was 300 mg QD.
In some cohorts, a phase 1a dose escalation was carried out starting at doses of 350 mg, 400 mg, 450 mg and 500 mg total daily dose at a 5:2 or 4:3 dosing regimen. The doses used in Phase 1b were 350 mg and 400 mg at 5:2 dosing regimen.
Tumor assessments (per RECIST 1.1) were carried out every 2 cycles (6 weeks) in subjects recruited in the study. There were no biomarker requirements to enroll in the study; nor were there any prior therapy requirements. Individuals in the cohorts represented multiple tumor types (FIG. 9A). Heavily pretreated subjects with advanced solid tumors were included in continuous and intermittent dosing cohorts (Table 6).
51 subjects were enrolled with Uterine Serous Carcinoma (USC) or High Grade Serous Ovarian Cancer (HGSOC) after multiple prior therapies in cohorts treated with continuous or intermittent dosing schedules (Table 7A) and intermittent dosing schedule only (Table 7B).
A total of 127 heavily pretreated subjects with advanced solid tumors were treated with Azenosertib monotherapy at ascending dose levels of either continuous daily dosing or intermittent weekly administration schedules. Across all tumor types, 74 subjects were treated with continuous dosing schedules and 53 subjects were treated with intermittent dosing schedules.

The nature of series [6]: Half-life of Azenosertib. The format is in vivo. To be noted: plasma.
Where [7] appears, read: intermittent dosing cohort, platinum-resistant ovarian cancer and USC, median follow-up 9.2 months.

T1 sequence (P30291 whole entry): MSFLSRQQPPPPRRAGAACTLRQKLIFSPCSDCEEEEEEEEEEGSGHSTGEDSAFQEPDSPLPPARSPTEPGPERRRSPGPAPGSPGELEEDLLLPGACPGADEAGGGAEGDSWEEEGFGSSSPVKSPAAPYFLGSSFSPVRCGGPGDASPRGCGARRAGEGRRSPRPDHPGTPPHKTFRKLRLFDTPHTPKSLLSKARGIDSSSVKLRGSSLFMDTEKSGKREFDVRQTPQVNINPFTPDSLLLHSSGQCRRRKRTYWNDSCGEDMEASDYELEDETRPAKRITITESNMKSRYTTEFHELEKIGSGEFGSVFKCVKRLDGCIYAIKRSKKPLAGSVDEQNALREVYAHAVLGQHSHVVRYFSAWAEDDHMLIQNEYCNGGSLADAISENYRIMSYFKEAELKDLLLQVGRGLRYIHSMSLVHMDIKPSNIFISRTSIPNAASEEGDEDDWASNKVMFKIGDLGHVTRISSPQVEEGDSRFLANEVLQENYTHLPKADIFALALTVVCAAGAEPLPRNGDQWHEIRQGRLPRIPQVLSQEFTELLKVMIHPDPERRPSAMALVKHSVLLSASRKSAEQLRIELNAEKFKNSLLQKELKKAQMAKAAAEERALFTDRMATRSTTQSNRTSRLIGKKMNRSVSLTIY

As for `C=CCn1c(=O)c2cnc(Nc3ccc(N4CCN(C)CC4)cc3)nc2n1-c1ccc2c(n1)[C@@](O)(CC)CC2` [Azenosertib, (R)-2-allyl-1-(7-ethyl-7-hydroxy-6,7-dihydro-5H-cyclopenta[b]pyridin-2-yl)-6-((4-(4-methylpiperazin-1-yl)phenyl)amino)-1,2-dihydro-3H-pyrazolo[3,4-d]pyrimidin-3-one], the “change in tumor volume, intermittent vs continuous dosing” value in series [1] was “more efficacious; also recorded: higher efficacy than continuous dosing in reducing tumor volume”. In addition, the “tumor volume, intermittent vs continuous dosing” value in series [2] (about 100 mg/kg 3 cycles 4/3 and 3/4 vs continuous 60 mg/kg, about 24 days) is reported as “more efficacious”. For the same molecule, in series [2] (about 100 mg/kg, 3 cycles), the “efficacy of 4 days on/3 days off vs 3 days on/4 days off” value is “comparable in efficacy”. The “tumor volume, intermittent 4/3 or 3/4 vs continuous dosing” value in series [3] (100 mg/kg 3 cycles 4/3 or 3/4 vs 60 mg/kg continuous for 24 days) is “higher efficacy than continuous dosing”. The “efficacy of 4/3 regimen vs 3/4 regimen” value in series [3] (100 mg/kg, 3 cycles, 4/3 = higher cumulative dose) is given as “slightly higher efficacy”. The “tumor volume, once daily vs twice daily dose” value in series [3] (5/2, 80 mg/kg once daily vs 40 mg/kg twice daily, 100 mg/kg once daily vs 50 mg/kg twice daily, same cumulative dose) is listed as “more efficacious relative to each twice daily dose; also recorded: more efficacious relative to a twice daily dose”. Besides, the “tumor volume, intermittent 5/2 and 4/3 vs continuous dose” value in series [3] (80, 90 mg/kg 5/2 and 90, 100 mg/kg 4/3 vs 60 mg/kg continuous, about 24 days) is on record as “more efficacious than the lower continuous dose”. Besides, in series [3] (about 100 mg/kg, 3 cycles of 7 days on/7 days off, about 32 days), the “tumor volume, 7/7 intermittent dosing regimen” value was “effective in reducing tumor volume”. Also, in series [4] (dose of greater than about 300 mg once daily), the “decrease of p-CDK1 levels” value was “at least 50%”. For the same molecule, the “p-CDK1 levels in skin biopsies following treatment relative to baseline” value in series [4] (skin biopsies) was “decreases in p-CDK1 levels”. Further, in series [5] (Azenosertib monotherapy, N=51, N with at least 1 scan=40), the “overall Objective Response Rate (ORR %)” value is reported as 27.5%. For the same molecule, in series [5] (USC and HGSOC subjects), the “subjects with stable disease (SD) or partial response (PR) as best overall response” value is 95% and the “subjects with target lesion reductions from baseline scans” value is reported as 89%. Also, in series [5] (setting [7]), the ORR % is on record as 36.8% and the mPFS came to 6.5 months. In series [5] (ovarian, early follow up of median 4.4 months), the “median PFS” value is “around 5.1 months”. This molecule showed a half-life in series [6] of 8 h.

The half-life is the time in which the quantity being followed falls by half. Lower therefore signals fast loss.
